From ChEMBL document CHEMBL1131386, “Synthesis and evaluation of 11beta-substituted 21-chloro/iodo-(17alpha,20E/Z)-19-norpregna-1,3,5(10),20-te traene-3, 17beta-diols: high-affinity ligands for the estrogen receptor” (J Med Chem, 1998) come the findings set out here.

Test [1] deals with T1, Estrogen receptor (Ovis aries) (UniProt P49885+Q9TU15). Description: Relative binding affinity for lamb uterine estrogen receptor at 25 degree C. Format: protein assay.
In test [2] the target is T1, Estrogen receptor (Ovis aries). Briefly: Relative binding affinity for lamb uterine estrogen receptor at 4C. It is filed as protein assay.

Regarding `C=C[C@H]1C[C@@]2(C)[C@@H](CC[C@@]2(O)/C=C\Cl)[C@@H]2CCc3cc(O)ccc3[C@H]21`, the RBA in test [1] came to 704; in test [2] it was 101.

As to `CO[C@H]1C[C@@]2(C)[C@@H](CC[C@@]2(O)/C=C\Cl)[C@@H]2CCc3cc(O)ccc3[C@H]21`, the RBA in test [1] amounted to 195; in test [2], 22.

In the case of `C=C[C@H]1C[C@@]2(C)[C@@H](CC[C@@]2(O)/C=C/I)[C@@H]2CCc3cc(O)ccc3[C@H]21`, the RBA stood at 447 in test [1] and 78 in test [2].

Turning to `CO[C@H]1C[C@@]2(C)[C@@H](CC[C@@]2(O)/C=C/I)[C@@H]2CCc3cc(O)ccc3[C@H]21`, the RBA was determined as 65 in test [1] and 34 in test [2].

As for `C[C@]12CC[C@@H]3c4ccc(O)cc4CC[C@H]3[C@@H]1CC[C@@]2(O)/C=C/I`, the figures for the RBA in test [1] and in test [2] were 62 and 77, respectively.

For `C=C[C@H]1C[C@@]2(C)[C@@H](CC[C@@]2(O)/C=C\I)[C@@H]2CCc3cc(O)ccc3[C@H]21`, the RBA in test [1] was 1200; in test [2], 98.

For the molecule `C[C@]12CC[C@@H]3c4ccc(O)cc4CC[C@H]3[C@@H]1CC[C@@]2(O)/C=C/Cl`, the RBA was 89 in test [1] and 102 in test [2].

Turning to `C[C@]12CC[C@@H]3c4ccc(O)cc4CC[C@H]3[C@@H]1CC[C@@]2(O)/C=C\I`, the RBA in test [1] was determined as 776; in test [2], 202.

On to `CO[C@H]1C[C@@]2(C)[C@@H](CC[C@@]2(O)/C=C\I)[C@@H]2CCc3cc(O)ccc3[C@H]21`, for which the RBA in test [1] was found to be 513; in test [2], 48.

`CO[C@H]1C[C@@]2(C)[C@@H](CC[C@@]2(O)/C=C/Cl)[C@@H]2CCc3cc(O)ccc3[C@H]21`: the RBA was 65 in test [1] and 29 in test [2].

As to `C[C@]12CC[C@@H]3c4ccc(O)cc4CC[C@H]3[C@@H]1CC[C@@]2(O)/C=C\Cl`, the RBA in test [1] stood at 199; in test [2], 126.

For the molecule `C=C[C@H]1C[C@@]2(C)[C@@H](CC[C@@]2(O)/C=C/Cl)[C@@H]2CCc3cc(O)ccc3[C@H]21`, the RBA worked out at 724 in test [1] and 107 in test [2].
